The values below come from ChEMBL document CHEMBL1201862, “PubChem BioAssay data set” (2004).

Active and inactive are the calls of the source. A value given as a limit tells only on which side of the number the result lay.

For experiment [1], the target named is T1, G-protein coupled receptor 35 (Homo sapiens, UniProt Q9HC97). In words: SAR analysis of Agonists of the GPR35 Receptor using an Image-Based Assay - Set 4. [Related pubchem assays (depositor defined):AID2013, AID2026]. The format is functional.
T1 sequence (Q9HC97 whole entry): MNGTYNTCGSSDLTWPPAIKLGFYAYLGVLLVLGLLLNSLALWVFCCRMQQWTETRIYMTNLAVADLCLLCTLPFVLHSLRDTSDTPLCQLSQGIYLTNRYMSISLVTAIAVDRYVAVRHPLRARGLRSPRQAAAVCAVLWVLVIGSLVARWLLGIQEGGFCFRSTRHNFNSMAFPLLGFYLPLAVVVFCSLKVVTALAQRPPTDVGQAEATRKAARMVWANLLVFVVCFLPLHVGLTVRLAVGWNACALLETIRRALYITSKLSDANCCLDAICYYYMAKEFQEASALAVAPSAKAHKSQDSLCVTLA
The target in experiment [2] is T2, Cannabinoid receptor 1 (Homo sapiens, UniProt P21554). Briefly: SAR analysis of agonists of the Cannabinoid Receptor 1 using an Image-Based Assay - Set 4. [Related pubchem assays (depositor defined):AID2013, AID2026]. In kind it is functional.
T2 sequence (P21554 whole entry): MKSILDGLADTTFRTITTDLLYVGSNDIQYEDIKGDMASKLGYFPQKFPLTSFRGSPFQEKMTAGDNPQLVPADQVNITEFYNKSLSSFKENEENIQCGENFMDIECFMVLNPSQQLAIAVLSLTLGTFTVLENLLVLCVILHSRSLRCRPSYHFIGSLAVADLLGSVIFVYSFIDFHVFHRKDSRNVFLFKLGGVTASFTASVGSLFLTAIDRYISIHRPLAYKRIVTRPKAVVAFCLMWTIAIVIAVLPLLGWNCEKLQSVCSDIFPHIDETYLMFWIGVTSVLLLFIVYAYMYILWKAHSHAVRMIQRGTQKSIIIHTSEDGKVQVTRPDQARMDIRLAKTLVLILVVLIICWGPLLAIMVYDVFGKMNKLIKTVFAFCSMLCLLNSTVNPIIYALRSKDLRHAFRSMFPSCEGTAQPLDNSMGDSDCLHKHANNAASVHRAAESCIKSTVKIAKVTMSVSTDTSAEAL
Experiment [3] concerns the target T1, G-protein coupled receptor 35. In words: SAR analysis of Antagonists of the GPR35 Receptor using an Image-Based Assay - Set 6. [Related pubchem assays (depositor defined):AID2013, AID2026]. The format is functional.
In experiment [4] the target is T2, Cannabinoid receptor 1. In words: SAR analysis of antagonists of the Cannabinoid Receptor 1 using an Image-Based Assay - Set 4. [Related pubchem assays (depositor defined):AID2013, AID2026]. In kind it is functional.
In experiment [5] the target is G-protein coupled receptor 55 (Homo sapiens, UniProt Q9Y2T6). Briefly: SAR Analysis of Selective Antagonists of GPR55 using an Image-Based Assay - Set 4. [Related pubchem assays (depositor defined):AID2013, AID2026]. In kind it is functional.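 Also: antagonism of response to 5 µM lysophosphatidylinositol agonist.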
Sequence of G-protein coupled receptor 55 (Q9Y2T6 whole entry): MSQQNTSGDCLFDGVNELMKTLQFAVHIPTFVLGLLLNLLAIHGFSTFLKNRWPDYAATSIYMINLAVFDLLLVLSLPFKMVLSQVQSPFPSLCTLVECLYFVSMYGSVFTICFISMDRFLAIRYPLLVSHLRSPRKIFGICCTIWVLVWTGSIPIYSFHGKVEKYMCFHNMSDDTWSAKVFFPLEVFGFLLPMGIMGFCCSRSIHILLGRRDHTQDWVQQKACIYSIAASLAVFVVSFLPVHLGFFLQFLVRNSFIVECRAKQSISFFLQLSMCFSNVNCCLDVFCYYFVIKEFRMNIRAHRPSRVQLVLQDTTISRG
Experiment [6] has as its target T3, Cannabinoid receptor 2 (Homo sapiens, UniProt P34972). In words: SAR analysis of antagonists of the Cannabinoid Receptor 2 using an Image-Based Assay - Set 3. [Related pubchem assays (depositor defined):AID2013, AID2026]. In kind it is functional.
Experiment [7] concerns the target T3, Cannabinoid receptor 2. In words: SAR analysis of agonists of the Cannabinoid Receptor 2 using an Image-Based Assay - Set 3. [Related pubchem assays (depositor defined):AID2013, AID2026]. The format is functional.
The target of experiment [8] is T4, Epstein-Barr nuclear antigen 1 (Epstein-Barr virus (strain B95-8) (HHV-4) (Human herpesvirus 4), UniProt P03211).
T4 sequence (P03211 whole entry): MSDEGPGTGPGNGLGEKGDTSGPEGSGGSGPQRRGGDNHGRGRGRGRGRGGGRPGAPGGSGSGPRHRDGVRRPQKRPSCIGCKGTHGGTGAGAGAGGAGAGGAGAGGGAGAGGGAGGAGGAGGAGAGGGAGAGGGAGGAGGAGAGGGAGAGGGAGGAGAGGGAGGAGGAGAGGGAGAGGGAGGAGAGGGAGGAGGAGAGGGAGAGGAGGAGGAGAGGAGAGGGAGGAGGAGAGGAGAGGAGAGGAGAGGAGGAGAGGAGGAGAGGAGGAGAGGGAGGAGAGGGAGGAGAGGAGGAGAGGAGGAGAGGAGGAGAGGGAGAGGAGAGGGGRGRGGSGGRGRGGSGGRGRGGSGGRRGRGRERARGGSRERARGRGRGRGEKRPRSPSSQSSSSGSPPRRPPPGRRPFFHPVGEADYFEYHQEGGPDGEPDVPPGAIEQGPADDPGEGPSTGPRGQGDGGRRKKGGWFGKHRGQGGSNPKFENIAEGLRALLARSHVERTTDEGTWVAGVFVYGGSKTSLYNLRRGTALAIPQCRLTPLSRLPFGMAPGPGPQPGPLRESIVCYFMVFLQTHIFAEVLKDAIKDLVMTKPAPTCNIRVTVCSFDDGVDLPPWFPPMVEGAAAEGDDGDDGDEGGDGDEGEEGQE
In words: EBNA-1 inhibitors, dose response, biochemical, fluorescence polarization, 1536-well (AID 2381).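 Also: fluorescence polarization of a Cy5 DNA probe bound by EBNA-1 protein.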 Details: species or system human gammaherpesvirus 4.

The target of experiment [9] is T5, Lytic switch protein BZLF1 (Epstein-Barr virus (strain B95-8) (HHV-4) (Human herpesvirus 4), UniProt P03206).
T5 sequence (P03206 whole entry): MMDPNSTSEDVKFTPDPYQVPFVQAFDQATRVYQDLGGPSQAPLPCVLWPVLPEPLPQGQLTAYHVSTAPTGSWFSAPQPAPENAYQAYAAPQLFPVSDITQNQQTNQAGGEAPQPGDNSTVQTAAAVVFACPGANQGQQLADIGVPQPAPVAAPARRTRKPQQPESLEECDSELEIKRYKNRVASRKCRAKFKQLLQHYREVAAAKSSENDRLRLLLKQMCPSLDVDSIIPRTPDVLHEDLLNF
Briefly: EBV ZTA inhibitors, dose response, counter-screen for EBNA-1 inhibitor project, biochemical, fluorescence polarization, Epstein-Barr virus, 1536-well (AID 2377).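 Also: fluorescence polarization of Cy5-labelled ZRE DNA probe bound by purified Zta.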 Details: species or system human gammaherpesvirus 4. (A counterscreen serves to expose hits that act by an unwanted route or on another target.)

Experiment [10] addresses T6, Acyl-homoserine lactone acylase PvdQ (Pseudomonas aeruginosa (strain LESB58), UniProt Q9I194).
T6 sequence (Q9I194 whole entry): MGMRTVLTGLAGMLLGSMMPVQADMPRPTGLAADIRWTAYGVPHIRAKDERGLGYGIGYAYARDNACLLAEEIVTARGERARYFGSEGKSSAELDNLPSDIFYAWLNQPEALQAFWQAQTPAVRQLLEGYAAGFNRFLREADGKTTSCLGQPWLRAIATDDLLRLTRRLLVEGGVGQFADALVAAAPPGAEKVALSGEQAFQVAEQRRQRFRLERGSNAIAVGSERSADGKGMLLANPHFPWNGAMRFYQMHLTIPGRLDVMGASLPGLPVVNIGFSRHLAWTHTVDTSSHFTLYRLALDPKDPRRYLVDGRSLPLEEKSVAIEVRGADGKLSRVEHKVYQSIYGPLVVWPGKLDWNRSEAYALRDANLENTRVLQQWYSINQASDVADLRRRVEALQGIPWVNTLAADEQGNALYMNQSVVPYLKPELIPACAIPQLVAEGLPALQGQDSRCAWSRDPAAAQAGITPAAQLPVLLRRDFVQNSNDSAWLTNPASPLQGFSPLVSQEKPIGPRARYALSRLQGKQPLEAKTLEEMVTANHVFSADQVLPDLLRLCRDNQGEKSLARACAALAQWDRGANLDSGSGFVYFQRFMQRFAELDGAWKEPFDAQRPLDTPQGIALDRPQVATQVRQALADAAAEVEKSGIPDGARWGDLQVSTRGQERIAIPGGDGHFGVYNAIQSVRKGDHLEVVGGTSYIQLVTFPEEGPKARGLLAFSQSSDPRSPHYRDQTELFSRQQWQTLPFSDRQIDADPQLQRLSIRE
Briefly: P. aeruginosa PvdQ acylase inhibitors, dose response, biochemical, fluorescence, plate reader and imaging, cherry-picks (AID 493231).

A short description of experiment [11]: cells. The format is functional, cell-based.
Experiment [12] in a line: cells. The format is functional, cell-based. This is another data set of the same source.
The target in experiment [13] is T7, Short transient receptor potential channel 4 (Mus musculus, UniProt Q9QUQ5).
T7 sequence (Q9QUQ5 whole entry): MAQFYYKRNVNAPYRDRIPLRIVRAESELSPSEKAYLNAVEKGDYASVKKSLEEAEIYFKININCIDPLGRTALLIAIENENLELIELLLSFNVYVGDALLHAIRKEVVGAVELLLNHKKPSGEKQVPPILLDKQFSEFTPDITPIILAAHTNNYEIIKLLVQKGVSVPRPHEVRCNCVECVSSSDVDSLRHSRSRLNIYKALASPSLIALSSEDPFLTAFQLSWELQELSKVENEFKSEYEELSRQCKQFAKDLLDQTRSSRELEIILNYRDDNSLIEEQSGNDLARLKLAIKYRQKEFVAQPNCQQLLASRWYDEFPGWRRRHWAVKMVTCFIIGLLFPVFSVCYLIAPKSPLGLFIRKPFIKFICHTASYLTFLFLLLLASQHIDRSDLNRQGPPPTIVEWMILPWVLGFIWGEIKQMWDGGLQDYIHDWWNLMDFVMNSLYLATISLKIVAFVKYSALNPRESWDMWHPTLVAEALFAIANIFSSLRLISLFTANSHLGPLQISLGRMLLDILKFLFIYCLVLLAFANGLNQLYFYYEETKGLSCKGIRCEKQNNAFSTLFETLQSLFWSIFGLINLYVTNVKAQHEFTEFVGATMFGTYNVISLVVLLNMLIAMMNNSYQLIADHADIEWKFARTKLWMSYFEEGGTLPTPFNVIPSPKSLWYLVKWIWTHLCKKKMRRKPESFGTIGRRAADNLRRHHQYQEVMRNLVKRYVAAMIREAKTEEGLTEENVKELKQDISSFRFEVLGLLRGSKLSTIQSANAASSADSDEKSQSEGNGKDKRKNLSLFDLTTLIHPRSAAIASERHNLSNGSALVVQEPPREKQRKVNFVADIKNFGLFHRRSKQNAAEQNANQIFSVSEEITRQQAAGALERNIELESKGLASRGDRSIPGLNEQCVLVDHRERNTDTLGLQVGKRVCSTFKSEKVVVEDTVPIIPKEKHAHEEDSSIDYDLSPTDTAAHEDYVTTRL
Briefly: mouse TRPC4 channel inhibitors, dose response, cell-based, HEK293 TRPC4/mu-opioid, Fluo-4 calcium (AID 434942).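 Also: potency of inhibitors blocking the TRPC4 calcium response.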 The format is functional.

T3 sequence (P34972 whole entry): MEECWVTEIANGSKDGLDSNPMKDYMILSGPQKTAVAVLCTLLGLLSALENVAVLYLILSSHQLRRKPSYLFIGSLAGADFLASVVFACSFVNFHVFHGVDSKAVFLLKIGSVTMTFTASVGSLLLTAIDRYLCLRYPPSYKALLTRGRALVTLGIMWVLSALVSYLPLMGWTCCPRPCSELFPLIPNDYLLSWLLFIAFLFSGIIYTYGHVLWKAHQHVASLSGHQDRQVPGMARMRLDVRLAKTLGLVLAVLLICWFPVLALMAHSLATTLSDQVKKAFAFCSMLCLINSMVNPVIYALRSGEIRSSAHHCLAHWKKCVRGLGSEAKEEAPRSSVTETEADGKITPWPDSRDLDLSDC

As to `Cc1nc(N2CCN(C(=O)c3ccc4c(c3)OCCO4)CC2)c2c3c(sc2n1)CCCC3`, the EC50 (in experiment [1]; at Cannabinoid receptor 1 [2]; on Cannabinoid receptor 2 [7]) was > 32 µM (inactive) in each case. The IC50 in experiment [3] was > 32 µM (inactive); on Cannabinoid receptor 1 [4], 3.36 µM (active); in experiment [5], 21.4 µM (inactive); on Cannabinoid receptor 2 [6], 24.2 µM (inactive).

Take `CCOc1cc(C(=O)OCC(=O)c2c(N)n(C)c(=O)n(C)c2=O)cc(OCC)c1OCC`: the IC50 in experiment [8] is 19.3 µM (not active); in [9] it was > 111 µM (not active).

On to `O=C(NC1CCCCCCC1)c1cc(F)c(F)cc1Cl`, for which the half-maximal activity concentration (AC50) in experiment [10] is 52.8 µM (active).

On to `CN1C(=O)N(C)C2(c3ccccc3)Nn3c(s/c(=C/c4ccco4)c3=O)=NC12c1ccccc1` (stereo not given), for which the IC50 in [8] was > 5.47 µM (active); in experiment [9], > 111 µM (not active).

For `Cc1ccc(Nc2nc(NCC3CCCO3)nc(N)c2[N+](=O)[O-])cc1C` (stereo not given), the IC50 in experiment [8] was 6.09 µM (active); in experiment [9] it was > 111 µM (not active).

In the case of `COc1ccc(CC(C)Nc2cccc(F)c2)cc1` (stereo not given), the AC50 in experiment [10] is 14.5 µM (active).

In the case of `Cc1nn(C(=O)c2cccnc2)c(C)c1Sc1ccccc1`, the EC50 in the experiment “cells [11]” is > 350 µM (not active); in the experiment “cells [12]” it was > 350 µM (not active); in experiment [13], 3.35 µM (active).

Consider `CCN(CC)S(=O)(=O)c1ccc(NC(=O)c2cc(-c3ccccc3)nc3ccccc23)cc1`, for which the EC50 (in experiment [1]; on Cannabinoid receptor 1 [2]; at Cannabinoid receptor 2 [7]) was > 32 µM (inactive) each time. Moreover, the IC50 in [3] was > 32 µM (inactive); at Cannabinoid receptor 1 [4], 0.352 µM (active); in experiment [5], > 32 µM (inactive); on Cannabinoid receptor 2 [6], > 10.8 µM (inactive).

In general, EC50 refers to the concentration at which the effect is half-maximal. For orientation: IC50 means the concentration that inhibits the measured activity by half. The term AC50 denotes the concentration at which the activity in the assay is half-maximal.
